Experimental data reported in the NIST ThermoML archive (doi:10.1016/j.fluid.2015.07.012).

Assay: xn = mol fraction of the nth substance listed
Settings: Liquid; for viscosity: Capillary tube (Ostwald / Ubbelohde) method; for mass density: Vibrating tube method

CCO [ethanol] + O
Settings	mass density, 10000 kPa [kg/m3]	mass density, 20000 kPa [kg/m3]	mass density, 30000 kPa [kg/m3]	mass density, 40000 kPa [kg/m3]	viscosity, 10000 kPa [mPa·s]	viscosity, 20000 kPa [mPa·s]	viscosity, 30000 kPa [mPa·s]	viscosity, 40000 kPa [mPa·s]
350.7 K, x1 = 0.1	933.68	936.77	941.46	945.15	0.537	0.546	0.556	0.578
350.7 K, x1 = 0.2	895.78	900.9	905.65	911.39	0.625	0.638	0.651	0.681
350.7 K, x1 = 0.3	863.89	870.14	876.58	881.9	0.632	0.661	0.684	0.726
350.7 K, x1 = 0.4	838.33	845.24	852.53	859.05	0.64	0.669	0.691	0.737
350.7 K, x1 = 0.6	798.55	807.87	815.61	822.93	0.595	0.624	0.654	0.695
350.7 K, x1 = 0.8	768.37	778.79	787.77	795.87	0.531	0.57	0.601	0.643
350.7 K, x1 = 1	745.63	757.47	766.87	775.75	0.461	0.518	0.555	0.59
373.2 K, x1 = 0.1	913.36	918.8	924.46	928.74	0.401	0.397	0.403	0.421
373.2 K, x1 = 0.2	874.72	880.64	886.74	892.24	0.448	0.449	0.459	0.483
373.2 K, x1 = 0.3	842.36	849.56	856.1	862.39	0.461	0.473	0.484	0.515
373.2 K, x1 = 0.4	815.79	823.45	830.81	837.9	0.462	0.477	0.489	0.509
373.2 K, x1 = 0.6	776.56	785.48	794.06	801.93	0.434	0.451	0.461	0.489
373.2 K, x1 = 0.8	747.1	757.25	767.44	776.49	0.381	0.406	0.439	0.456
373.2 K, x1 = 1	726.87	738.25	750.02	757.87	0.364	0.382	0.404	0.443
476.2 K, x1 = 0.1	802.54	810.76	819.25	827.58	0.148	0.152	0.159	0.164
476.2 K, x1 = 0.2	752.52	764.89	776.24	786.01	0.151	0.157	0.164	0.168
476.2 K, x1 = 0.3	713.85	728.6	743.62	754.08	0.144	0.153	0.164	0.172
476.2 K, x1 = 0.4	682.37	700.31	717.25	730.44	0.139	0.148	0.159	0.167
476.2 K, x1 = 0.6	636.05	658.71	679.71	694.35	0.125	0.138	0.15	0.161
476.2 K, x1 = 0.8	605.36	633.16	656.43	671.76	0.113	0.129	0.144	0.155
476.2 K, x1 = 1	582.85	613.37	638.82	656.07	0.107	0.123	0.138	0.151

CO [methanol] + O
Settings	mass density, 10000 kPa [kg/m3]	mass density, 20000 kPa [kg/m3]	mass density, 30000 kPa [kg/m3]	mass density, 40000 kPa [kg/m3]	viscosity, 10000 kPa [mPa·s]	viscosity, 20000 kPa [mPa·s]	viscosity, 30000 kPa [mPa·s]	viscosity, 40000 kPa [mPa·s]
350.7 K, x1 = 0.1	945.55	949.82	954.11	958.39	0.448	0.454	0.458	0.473
350.7 K, x1 = 0.2	917.41	921.49	927.03	931.54	0.503	0.514	0.526	0.543
350.7 K, x1 = 0.3	889.97	895.56	901.14	906.05	0.514	0.528	0.542	0.558
350.7 K, x1 = 0.4	865.13	870.55	876.99	882.71	0.512	0.529	0.544	0.565
350.7 K, x1 = 0.6	819.84	827.75	835.46	842.38	0.449	0.47	0.494	0.519
350.7 K, x1 = 0.8	780.91	789.25	797.6	805.96	0.379	0.4	0.416	0.443
350.7 K, x1 = 1	–	–	–	–	0.298	0.313	0.331	0.351
373.2 K, x1 = 0.1	928.71	932.78	939.53	943.52	0.33	0.337	0.339	0.347
373.2 K, x1 = 0.2	900.41	904.78	911.46	914.74	0.358	0.368	0.372	0.382
373.2 K, x1 = 0.3	870.61	877.31	883.51	889.33	0.364	0.378	0.385	0.398
373.2 K, x1 = 0.4	845.4	851.97	858.91	864.81	0.36	0.375	0.382	0.399
373.2 K, x1 = 0.6	799.33	807.98	817.6	823.64	0.324	0.342	0.353	0.368
373.2 K, x1 = 0.8	758.8	770.24	780.53	789.08	0.276	0.294	0.307	0.326
373.2 K, x1 = 1	725.29	737.85	748.83	758.66	0.227	0.25	0.259	0.275
476.2 K, x1 = 0.1	822.65	831.4	838.61	845.82	0.141	0.144	0.148	0.151
476.2 K, x1 = 0.2	781.47	792.25	802.47	810.27	0.14	0.143	0.15	0.152
476.2 K, x1 = 0.3	746.74	760.72	772.18	780.67	0.136	0.144	0.146	0.152
476.2 K, x1 = 0.4	714.67	730.97	744.11	754.89	0.129	0.138	0.144	0.149
476.2 K, x1 = 0.6	664.45	685.36	703.08	715.13	0.115	0.123	0.131	0.14
476.2 K, x1 = 0.8	617.54	647.18	668.6	683.43	0.101	0.113	0.122	0.129
476.2 K, x1 = 1	576.84	612.56	636.82	655.67	0.088	0.1	0.109	0.116
